Test results as given in patent US6479454B1, “Antimicrobial compositions and methods containing hydrogen peroxide and octyl amine oxide” (Ecolab Inc., priority 2000, dated 2002).

Key:
Pseudomonas aeruginosa = experiment: Minimal Bactericidal Concentration (MBC), Ecolab S.O.P. Method MS009 (A.O.A.C. Method 960.09); format: cell-based
Procedure: The term Minimal Bactericidal Concentration is used in the present invention to mean a 5 log reduction in microbe count.
An experiment was conducted to determine the Minimal Bactericidal Concentration (MBC) of octyldimethylamine oxide alone, hydrogen peroxide alone and two mixtures of octyldimethylamine oxide with hydrogen peroxide against Pseudomonas aeruginosa. Experiments were conducted using standard bacteriological techniques, specifically Ecolab Microbiological Services S.O.P. Method MS009 (reference to A.O.A.C. Method 960.09). […] The 50%/50% relative composition of amine oxide:hydrogen peroxide has a pH of 7.4 and an oxidation potential of 250 mV when diluted to 1.7% total oxidizer.

Salmonella javiana = experiment: Antimicrobial activity (log reduction) on a tomato surface; format: cell-based
Procedure: A second experiment was conducted to determine the synergistic effects of mixing an amine oxide, peracetic acid and hydrogen peroxide. Combinations of peracetic acid and hydrogen peroxide were measured in the presence and absence of a tetradecyl-dimethylamine oxide for antimicrobial activity against Salmonella javiana. Testing was performed on a tomato surface.

## OO [0/100, hydrogen peroxide]
Pseudomonas aeruginosa; MBC = 5 log reduction in microbe count, expressed as hydrogen peroxide concentration
  MBC ppm peroxide: >2,000 ppm

## CCCCCCCC[N+](C)(C)[O-] [100/0, octyldimethylamine oxide]
Pseudomonas aeruginosa; MBC = 5 log reduction
  concentration required to obtain MBC: greater than 2000 parts per million
Pseudomonas aeruginosa; Pseudomonas aeruginosa, MBC = 5 log reduction in microbe count, expressed as octyldimethylamine oxide concentration, read-out: MBC ppm amine oxide
  MBC: > 2000 µg/mL

## CCCCCCCCCCCCCC[N+](C)(C)[O-] [Amine Oxide Alone, tetradecyl-dimethylamine oxide]
Salmonella javiana; ppm of each component as given in the table row
  Log Reduction (S. Javiana): <0.2
Salmonella javiana; text summary of Table II
  antimicrobial activity against S. javiana (in words): fairly ineffective
